Where two headings read alike, the source gives them in different places. Marks after values point to notes of the source that are not given here.

For one series, the system named is Plasmopara viticola. In words: Plasmopara test (grapevines) / preventive. Format: in vivo. As to conditions: grapevine plants, preventive spray, 100 ppm of active ingredient, evaluated 6 days after inoculation; 0% = untreated control, 100% = no disease. Here is the method: Solvent: 24.5 parts by weight of acetone • 24.5 parts by weight of dimethylacetamide
Emulsifier: 1 part by weight of alkylaryl polyglycol ether
To produce a suitable preparation of active compound, 1 part by weight of active compound is mixed with the stated amounts of solvent and emulsifier, and the concentrate is diluted with water to the desired concentration. To test for preventive activity, young plants are sprayed with the preparation of active compound at the stated rate of application. After the spray coating has dried on, the plants are inoculated with an aqueous spore suspension of Plasmopara viticola and then remain for 1 day in an incubation cabinet at approximately 20° C. and a relative atmospheric humidity of 100%. The plant is subsequently placed for 4 days in a greenhouse at approximately 21° C. and a relative atmospheric humidity of approximately 90%. The plants are then misted and placed for 1 day in an incubation cabinet. The test is evaluated 6 days after the inoculation. 0% means an efficacy which corresponds to that of the untreated control, while an efficacy of 100% means that no disease is observed.

The next series relates to Phytophthora infestans. The series is classed as in vivo. The conditions noted are these: tomato plants, preventive spray, 500 ppm of active ingredient, evaluated 7 days after inoculation; 0% = untreated control, 100% = no disease.

Consider `CC(NC(=C(C#N)C(=O)CC1CC1)c1cn(C)nc1C(F)F)c1nccs1` (stereo not shown) [Compound 81], for which the efficacy is 92% with Plasmopara viticola and 95% in the series on Phytophthora infestans. Where the note is “pH 2.7”, the LogP was 2.59^[a].
For `COCC(=O)C(C#N)=C(NC(C)C(C)C)c1cn(C)nc1C(F)F` (stereo not shown) [Compound 56], in that order: 78%, 95% and 2.42^[a].
For `CC(C)C(C)NC(=C(C#N)C(=O)CC1CC1)c1cn(C)nc1C(F)F` (stereo not shown) [Compound 4], in that order: 94%, 95% and 3.27^[a].
For `CCCC(=O)C(C#N)=C(NC(C)COC)c1ccnn1C(F)F` (stereo not shown) [Compound 98], in that order: 94%, 100% and 2.73^[a].
Regarding `CCCC(=O)C(C#N)=C(NC(C)C1(Cl)CC1)c1cccnc1Cl` (stereo not shown) [Compound 33], the efficacy came to 93% in the series on Plasmopara viticola and 90% in the series with Phytophthora infestans. Also, the LogP (pH 2.7) is 3.44^[a].
Take `CCC(=O)C(C#N)=C(NC(C)C(C)C)c1cccnc1Cl` (stereo not shown) [Compound 5]: the efficacy came out at 93% with Plasmopara viticola and 100% in the series on Phytophthora infestans. For the same compound, the LogP runs as follows: (pH 2.7) 3.11^[a]; (pH 7.5) 3.09^[b].
With `CCCC(=O)C(C#N)=C(NC(C)C(C)C)c1cn(C)nc1C(F)F` (stereo not shown) [Compound 51], the values for the efficacy in the series on Plasmopara viticola and in the series on Phytophthora infestans were 100% and 95%, respectively. Moreover, the LogP (pH 2.7) is 3.29^[a].
For `CCCC(=O)C(C#N)=C(NC(C)C(C)C)c1ccc(Cl)nc1Cl` (stereo not shown) [Compound 90], in that order: 96%, 97% and 4.31^[a].
With `CC(NC(=C(C#N)C(=O)CC1CC1)c1cn(C)nc1C(F)F)C1CC1` (stereo not shown) [Compound 64], the efficacy is on record as 94% in the series on Plasmopara viticola and 98% in the series on Phytophthora infestans. Also, the LogP (pH 2.7) was 3.04^[a].
With `CCCC(=O)C(C#N)=C(NC(C)COC)c1cn(C)nc1C(F)F` (stereo not shown) [Compound 30], the results for the efficacy in the series on Plasmopara viticola and in the series on Phytophthora infestans were 94% and 100%, respectively. Also, the LogP (pH 2.7) was 2.54^[a].
In the case of `COCC(C)NC(=C(C#N)C(=O)CC1CC1)c1cn(C)nc1C(F)F` (stereo not shown) [Compound 2], the efficacy with Plasmopara viticola was found to be 94%; in the series with Phytophthora infestans it was 100%. Also, for the setting “pH 2.7”, the LogP was 2.54^[a].
For `CC(NC(=C(C#N)C(=O)CC1CC1)c1cccnc1Cl)C1(Cl)CC1` (racemic) [Compound 27], in that order: 95%, 93% and 3.39^[a].
For `CC(C)C(C)NC(=C(C#N)C(=O)CC1CC1)c1cccnc1Cl` (stereo not shown) [Compound 11], in that order: 82%, 100% and 3.55^[a].
For `CCCC(=O)C(C#N)=C(NC(C)C(C)C)c1cccnc1Cl` (stereo not shown) [Compound 20], in that order: 87%, 100% and 3.69^[a].
Turning to `CCCC(=O)C(C#N)=C(NC(C)C(C)(C)C)c1cn(C)nc1C(F)F` (stereo not shown) [Compound 84], the results for the efficacy with Plasmopara viticola and in the series on Phytophthora infestans were 89% and 100%, respectively. Besides, the LogP (pH 2.7) was 3.55^[a].

The values are drawn from patent US9474275B2, “Cyanoenamines and their use as fungicides” (priority 2010, dated 2016).
